Results published in the Kinase Knowledgebase extract (Sharma et al. 2016).

Assays:
PIK3CA (human) [1] = target: PIK3CA (human) (UniProt P42336); test: Inhibition of A2780 Cell Proliferation
PIK3CA (human) [2] = target: PIK3CA (human) (UniProt P42336); test: Inhibition of PIK3CA Kinase Activity

Chain of PIK3CA (human) (P42336 whole entry, looked up): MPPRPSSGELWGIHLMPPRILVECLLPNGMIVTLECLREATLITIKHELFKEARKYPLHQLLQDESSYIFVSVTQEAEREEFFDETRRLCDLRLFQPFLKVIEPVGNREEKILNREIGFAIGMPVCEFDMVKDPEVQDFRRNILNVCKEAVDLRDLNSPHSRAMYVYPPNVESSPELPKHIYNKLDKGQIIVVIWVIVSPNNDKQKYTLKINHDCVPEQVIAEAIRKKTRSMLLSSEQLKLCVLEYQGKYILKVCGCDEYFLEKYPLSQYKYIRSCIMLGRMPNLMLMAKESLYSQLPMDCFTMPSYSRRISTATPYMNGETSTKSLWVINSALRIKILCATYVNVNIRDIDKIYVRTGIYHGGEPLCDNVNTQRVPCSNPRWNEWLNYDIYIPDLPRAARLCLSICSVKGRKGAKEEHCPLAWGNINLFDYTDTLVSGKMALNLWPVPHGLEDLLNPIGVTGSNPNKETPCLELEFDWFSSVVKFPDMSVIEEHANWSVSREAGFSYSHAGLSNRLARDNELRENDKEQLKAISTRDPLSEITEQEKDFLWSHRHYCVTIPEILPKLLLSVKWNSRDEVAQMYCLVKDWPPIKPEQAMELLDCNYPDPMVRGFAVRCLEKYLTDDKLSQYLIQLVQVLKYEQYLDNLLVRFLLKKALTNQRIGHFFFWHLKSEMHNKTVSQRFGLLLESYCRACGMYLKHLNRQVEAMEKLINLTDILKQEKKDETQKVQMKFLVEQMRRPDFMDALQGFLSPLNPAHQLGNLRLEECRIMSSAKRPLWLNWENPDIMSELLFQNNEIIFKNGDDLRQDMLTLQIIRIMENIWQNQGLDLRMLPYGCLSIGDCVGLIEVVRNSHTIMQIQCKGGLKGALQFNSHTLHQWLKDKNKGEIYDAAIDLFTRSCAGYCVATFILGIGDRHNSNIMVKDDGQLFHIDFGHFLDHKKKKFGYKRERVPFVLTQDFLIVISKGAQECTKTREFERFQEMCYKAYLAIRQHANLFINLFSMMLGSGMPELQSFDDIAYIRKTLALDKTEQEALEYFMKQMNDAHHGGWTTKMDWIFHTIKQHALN

EC50 (PIK3CA (human) [1])	IC50 (PIK3CA (human) [2])	Compound
< 10000 nM	< 1000 nM	CCOc1nc(-c2ccc3nc(NC(C)=O)cn3n2)cnc1N
< 10000 nM	< 1000 nM	CC(=O)Nc1cn2cc(-c3cnc(N)c(-c4ccccc4)c3)ccc2n1
< 25000 nM	< 1000 nM	Nc1ncc(-c2ccc3nc(NC(=O)[C@H]4CCCN4)cn3n2)cc1C(F)(F)F
< 1000 nM	< 1000 nM	Nc1ncc(-c2ccc3nc(NC(=O)Cc4cccc5ccccc45)cn3c2)cc1C(F)(F)F
< 1000 nM	< 1000 nM	CC(=O)Nc1cn2cc(-c3cnc(N)c(Oc4ccc(F)cc4)n3)ccc2n1
< 1000 nM	< 1000 nM	CC(=O)Nc1nc2ccc(-c3cnc(N)c(C(F)(F)F)c3)cn2c1C#Cc1cccnc1
< 10000 nM	< 1000 nM	CC(=O)Nc1cn2cc(-c3cnc(N)c(Oc4ccc(N5CCN(C(C)=O)CC5)cc4)n3)ccc2n1
< 25000 nM	< 1000 nM	N#Cc1ccc(C(=O)Nc2cn3cc(-c4cnc(N)c(C(F)(F)F)c4)ccc3n2)cc1
< 10000 nM	< 1000 nM	CC(=O)Nc1cn2cc(-c3cnc(N)c(-c4ccccc4)n3)ccc2n1
< 10000 nM	< 1000 nM	COC(=O)Nc1nc2ccc(-c3ccc(N)nc3)cc2s1
< 10000 nM	< 1000 nM	CC(C)(C)OC(=O)NCC(=O)Nc1cn2cc(-c3cnc(N)c(C(F)(F)F)c3)ccc2n1
< 25000 nM	< 1000 nM	CC(=O)N1CCC[C@H]1C(=O)Nc1cn2cc(-c3cnc(N)c(Cl)c3)ccc2n1
< 10000 nM	< 1000 nM	CC(C)(C)OC(=O)NCCC(=O)Nc1cn2nc(-c3cnc(N)c(C(F)(F)F)c3)ccc2n1
< 10000 nM	< 1000 nM	Nc1ncc(-c2ccc3nc(NC(=O)CCCN4CCOCC4)sc3c2)cn1
< 1000 nM	< 1000 nM	Nc1ncc(-c2ccc3nc(NC(=O)c4ccc(F)cc4)cn3c2)cc1C(F)(F)F
< 10000 nM	< 1000 nM	CC(=O)Nc1nc2ccc(-c3cnc(N)c(C(F)(F)F)c3)cn2c1C(N)=O

EC50 (PIK3CA (human) [1])	IC50 (PIK3CA (human) [2])	Compound
< 10000 nM	< 1000 nM	Nc1ncc(-c2ccc3nc(NC(=O)COCc4ccccc4)cn3n2)cc1C(F)(F)F
< 25000 nM	< 1000 nM	CC(=O)Nc1nc2ccc(-c3cnc(N)nc3C(F)(F)F)cc2s1
< 10000 nM	< 1000 nM	CC(=O)Nc1cn2cc(-c3ccc(N)nc3)ccc2n1
< 10000 nM	< 1000 nM	CC(=O)Nc1nc2ccc(-c3cnc(N)c(C(=O)N4CCOCC4)c3)cc2s1
< 1000 nM	< 1000 nM	CC(C)(C)OC(=O)N1CC[C@@H](OCC(=O)Nc2cn3nc(-c4cnc(N)c(C(F)(F)F)c4)ccc3n2)C1
< 25000 nM	< 1000 nM	CC(=O)Nc1cn2cc(-c3cnc(N)c(OC4CNC4)n3)ccc2n1
< 25000 nM	< 1000 nM	CC(=O)Nc1ccc(-c2c(NC(C)=O)nc3ccc(-c4cnc(N)c(C(F)(F)F)c4)cn23)cc1
< 1000 nM	< 1000 nM	CC(=O)Nc1cn2cc(-c3cnc(N)c(C=NNc4ccccc4)c3)ccc2n1
< 25000 nM	< 1000 nM	CC(=O)Nc1nc2ccc(-c3cnc(N)c(C(F)(F)F)c3)cn2c1-c1ccccc1
< 10000 nM	< 1000 nM	CC(=O)Nc1cn2cc(-c3cnc(N)c(N4CCOCC4)n3)ccc2n1
< 10000 nM	< 1000 nM	CC(C)(C)OC(=O)N1CC(C(=O)Nc2cn3nc(-c4cnc(N)c(C(F)(F)F)c4)ccc3n2)C1
< 25000 nM	< 1000 nM	CC(C)(C)OC(=O)N1CCC[C@@H]1C(=O)Nc1cn2nc(-c3cnc(N)c(C(F)(F)F)c3)ccc2n1
< 25000 nM	< 1000 nM	CC(=O)Nc1nc2ccc(-c3cnc(N)cc3C)cc2s1
< 10000 nM	< 25000 nM	Nc1ncc(-c2ccc3nc(NC(=O)[C@@H]4CCCN4)cn3c2)cc1C(F)(F)F
< 25000 nM	< 1000 nM	CC(=O)Nc1cn2cc(-c3cnc(N)c(F)c3)ccc2n1

Further lines, the molecule ahead of its results:

Compound	EC50 (PIK3CA (human) [1])	IC50 (PIK3CA (human) [2])
Nc1ncc(-c2ccc3nc(NC(=O)CN4CCCCC4)cn3c2)cc1C(F)(F)F	< 10000 nM	< 1000 nM
CNC(=O)[C@@H]1CCN1C(=O)Nc1cn2cc(-c3cnc(N)c(C(F)(F)F)c3)ccc2n1	< 25000 nM	< 25000 nM
Nc1ncc(-c2ccc3nc(NC(=O)[C@@H]4CCCCN4Cc4ccccc4)cn3c2)cc1C(F)(F)F	< 10000 nM	< 1000 nM
CC(=O)Nc1cn2nc(-c3cnc(N)c(C(=O)NCCNS(C)(=O)=O)c3)ccc2n1	< 25000 nM	< 1000 nM
CC(C)(C(=O)Nc1cn2cc(-c3cnc(N)c(C(F)(F)F)c3)ccc2n1)c1ccccc1	< 25000 nM	< 10000 nM
C/C=C/C(=O)Nc1cn2cc(-c3cnc(N)c(C(F)(F)F)c3)ccc2n1	< 10000 nM	< 1000 nM
CC(=O)Nc1cn2cc(-c3cnc(N)c(C(=O)NCCNS(C)(=O)=O)n3)ccc2n1	< 25000 nM	< 1000 nM
NCC(=O)Nc1cn2nc(-c3cnc(N)c(C(F)(F)F)c3)ccc2n1	< 1000 nM	< 1000 nM
C/C=C\c1c(NC(C)=O)nc2ccc(-c3cnc(N)c(C(F)(F)F)c3)cn12	< 25000 nM	< 1000 nM
CC(=O)Nc1cn2cc(-c3cnc(N)c(C(F)(F)F)c3)cc(F)c2n1	< 10000 nM	< 1000 nM
Nc1ncc(-c2ccc3nc(NC(=O)CCCN4CCCCC4)cn3c2)cc1C(F)(F)F	< 10000 nM	< 1000 nM
CC(=O)Nc1cn2cc(-c3cnc(N)c(-c4cccc(OC(F)(F)F)c4)c3)ccc2n1	< 1000 nM	< 1000 nM
CC(=O)Nc1cn2cc(-c3cnc(N)c(Oc4cccc(F)c4)n3)ccc2n1	< 1000 nM	< 1000 nM
CC(=O)Nc1cn2nc(-c3cnc(N)c(C(=O)NCCN)c3)ccc2n1	< 25000 nM	< 1000 nM
CC(=O)Nc1cn2nc(-c3cnc(N)c(-c4ccc(C(F)(F)F)cc4)c3)ccc2n1	< 1000 nM	< 1000 nM
CC(=O)Nc1cn2cc(-c3cnc(N)c(Oc4cccnc4)n3)ccc2n1	< 1000 nM	< 1000 nM
CC(=O)Nc1cn2nc(-c3cnc(N)c(-c4ccccc4)c3)ccc2n1	< 1000 nM	< 1000 nM
CC(=O)Nc1nc2cc(C)c(-c3cnc(N)c(C(F)(F)F)c3)cc2s1	< 25000 nM	< 1000 nM
COc1ccc(CC(=O)Nc2cn3cc(-c4cnc(N)c(C(F)(F)F)c4)ccc3n2)cc1OC	< 10000 nM	< 1000 nM
Nc1ncc(-c2ccc3nc(NC(=O)C4CCN4)cn3n2)cc1C(F)(F)F (stereo not given)	< 10000 nM	< 1000 nM
Nc1ncc(-c2ccc3nc(NC(=O)CN4CCCCC4)cn3n2)cc1C(F)(F)F	< 10000 nM	< 1000 nM
CNC(=O)C1CCN(C(=O)Nc2cn3cc(-c4cnc(N)c(C(F)(F)F)c4)ccc3n2)C1 (stereo not given)	< 25000 nM	< 1000 nM
Nc1ncc(-c2ccc3nc(NC(=O)CCCO)cn3c2)cc1C(F)(F)F	< 10000 nM	< 1000 nM
COCCOc1nc(-c2ccc3nc(NC(=O)C4CCN4)cn3c2)cnc1N (stereo not given)	< 25000 nM	< 1000 nM
CC(=O)Nc1cn2cc(-c3cnc(N)c(-c4cccc(F)c4)c3)ccc2n1	< 10000 nM	< 1000 nM

Compound	EC50 (PIK3CA (human) [1])	IC50 (PIK3CA (human) [2])
Nc1ncc(-c2ccc3nc(NC(=O)c4ccccn4)cn3c2)cc1C(F)(F)F	< 25000 nM	< 1000 nM
CC(C)(C)OC(=O)N1CCC1C(=O)Nc1cn2cc(-c3cnc(N)c(OCC(F)(F)F)n3)ccc2n1 (stereo not given)	< 25000 nM	< 1000 nM
Nc1ncc(-c2ccc3nc(NC(=O)CCC4CCCCN4)cn3n2)cc1C(F)(F)F (stereo not given)	< 1000 nM	< 1000 nM
CCOCC(=O)Nc1cn2cc(-c3cnc(N)c(C(F)(F)F)c3)ccc2n1	< 10000 nM	< 1000 nM
CC(=O)Nc1cn2cc(-c3cnc(N)c(C=NOC(C)(C)C)c3)ccc2n1	< 25000 nM	< 1000 nM
Nc1ncc(-c2ccc3nc(NC(=O)N4CCC[C@H]4CO)cn3c2)cc1C(F)(F)F	< 10000 nM	< 1000 nM
CC(=O)Nc1nc2c(F)cc(-c3cnc(N)c(C(F)(F)F)c3)cc2s1	< 25000 nM	< 1000 nM
COCCCOc1nc(-c2ccc3nc(NC(C)=O)cn3c2)cnc1N	< 1000 nM	< 1000 nM
CC(=O)Nc1nc2ccc(-c3cnc(N)c(C(F)(F)F)c3)cn2c1CCc1ccccc1	< 10000 nM	< 1000 nM
CC(=O)Nc1cn2nc(-c3cnc(N)c(C(=O)NCCO)c3)ccc2n1	< 25000 nM	< 1000 nM
NC(=O)[C@@H]1CCCN1C(=O)Nc1nc2ccc(-c3cnc(N)c(C(F)(F)F)c3)cc2s1	< 10000 nM	< 1000 nM
CC(C)(C)OC(=O)N1CCC(OCC(=O)Nc2cn3cc(-c4cnc(N)c(C(F)(F)F)c4)ccc3n2)CC1	< 10000 nM	< 1000 nM
CC(=O)Nc1nc2ccc(-c3cnc(N)c(C(F)(F)F)c3)c(C)c2s1	< 10000 nM	< 1000 nM
Nc1ncc(-c2ccc3nc(NC(=O)c4cccnc4)cn3c2)cc1C(F)(F)F	< 10000 nM	< 1000 nM
COCCOc1nc(-c2ccc3nc(NC(=O)CN4CCCCC4)cn3c2)cnc1N	< 10000 nM	< 1000 nM
CC(=O)Nc1cn2cc(-c3cnc(N)cn3)ccc2n1	< 25000 nM	< 1000 nM
CC(C)(C)OC(=O)N1CC[C@H]1C(=O)Nc1cn2cc(-c3cnc(N)c(C(F)(F)F)c3)ccc2n1	< 25000 nM	< 1000 nM
Nc1ncc(-c2ccc3nc(NC(=O)c4ccc(F)nc4)cn3c2)cc1C(F)(F)F	< 25000 nM	< 1000 nM
CN(CC(=O)Nc1cn2cc(-c3cnc(N)c(C(F)(F)F)c3)ccc2n1)C(=O)OC(C)(C)C	< 10000 nM	< 1000 nM
CCN1CCC(OCC(=O)Nc2cn3cc(-c4cnc(N)c(C(F)(F)F)c4)ccc3n2)CC1	< 10000 nM	< 1000 nM
CCN(CC)CC#Cc1c(NC(C)=O)nc2ccc(-c3cnc(N)c(C(F)(F)F)c3)cn12	< 10000 nM	< 1000 nM
Nc1ncc(-c2ccc3nc(NC(=O)c4cccc(F)c4)cn3c2)cc1C(F)(F)F	< 10000 nM	< 1000 nM
C[C@H](N)C(=O)Nc1cn2nc(-c3cnc(N)c(C(F)(F)F)c3)ccc2n1	< 10000 nM	< 1000 nM
CC(=O)Nc1cn2cc(-c3cnc(N)c(-c4cccc(C(F)(F)F)c4)c3)ccc2n1	< 1000 nM	< 1000 nM
